The text below walks through data of US9199975B2, “Biaryl imidazole derivatives for regulating CYP17” (Asana Biosciences, LLC, priority 2011, dated 2015).

Where only a bound is given, the exact number is not on record here.

In one assay the target is T1, human CYP17 (Homo sapiens, UniProt P05093).
T1 sequence (P05093 1-508): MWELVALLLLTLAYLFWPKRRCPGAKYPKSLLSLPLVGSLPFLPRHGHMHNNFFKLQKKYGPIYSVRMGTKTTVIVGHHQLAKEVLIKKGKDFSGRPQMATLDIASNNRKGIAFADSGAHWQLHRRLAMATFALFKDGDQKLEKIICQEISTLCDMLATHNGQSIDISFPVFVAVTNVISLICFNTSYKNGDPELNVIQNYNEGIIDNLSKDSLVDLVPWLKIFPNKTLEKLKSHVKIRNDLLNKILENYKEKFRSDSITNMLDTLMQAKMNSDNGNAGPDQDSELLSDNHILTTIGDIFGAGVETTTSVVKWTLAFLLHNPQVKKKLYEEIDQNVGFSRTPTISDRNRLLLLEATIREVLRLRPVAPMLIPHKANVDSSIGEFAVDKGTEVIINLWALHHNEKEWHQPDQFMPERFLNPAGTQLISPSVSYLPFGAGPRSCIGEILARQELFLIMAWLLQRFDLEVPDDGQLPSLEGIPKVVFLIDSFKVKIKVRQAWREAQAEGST
Description: CYP17 inhibition assay in yeast microsomes overexpressing human CYP17. The assay is classed as biochemical. The settings on record: yeast microsomes expressing human CYP17, 3H3-17α-hydroxypregnenolone substrate, 60 minutes at 37° C. The protocol: (§1) CYP17 Inhibition Assay in Rat Testicular Microsomes (Rat CYP17) or Yeast Microsome Overexpressing Human CYP17
(§2) A. Materials • 1. NADPH (Sigma): A working stock was prepared by adding 25 μL of 6.5 mM NADPH in each tube. The final concentration of NADPH used in the assay was 325 μM. • 2. Potassium Phosphate Buffer: One molar (1M) solutions of K2HPO4 and KH2PO4 were prepared. Eight mL of the 1 M KH2PO4 and 1.98 mL of the 1 M K2HPO4 were combined and the pH was adjusted to 7.4. • 3. ^3H3-17α-hydroxypregnenolone (American Radiolabeled Chemicals, Inc., stock 1 μCi/μL): A 1:1 dilution of ^3H3-17α-hydroxypregnenolone in ethanol was prepared by combining 100 μL ^3H3-17α-hydroxypregnenolone+100 μL ethanol for one complete 96 well plate. For the reaction, 2 μL of the diluted ^3H3-17α-hydroxypregnenolone was added in each tube, i.e., 1 μCi/reaction. • 4. Microsome Isolation Buffer: The microsome isolation buffer was prepared by combining 250 mM Sucrose, 5 mM EDTA, 10 mM Tris HCl, 4 mM DTT, and adjusting to pH 7.4. • 5. TEG Buffer: The TEG buffer was prepared by combining 50 mM Tris HCl, 1 mM EDTA, and 20% Glycerol. • 6. Rat Testicular Microsomes: Rat testis tissue was collected and disrupted with 30 strokes of a glass homogenizer on ice with 250 μL of microsome isolation buffer, followed by centrifugation at 10,000 g for 10 minutes at 4° C. The supernatant was collected and centrifuged at 100,000 g for 45 minutes at 4° C. The pellet was dissolved in TEG Buffer and the protein was quantified. The homogenized microsome samples were then frozen at −80° C. • 7. Yeast Microsomes which overexpress the human CYP17 enzyme were obtained from Premas Biotech, India.
(§3) Potassium phosphate buffer (470 μL) was prepared as described above and was added to each well of a deep well plate. The test compound was diluted using a TECAN liquid handler and 5 μL of diluted compound was transferred to each well (96 deep well/1 mL). A solution (25 μL) of 6.5 mM NADPH was added (final concentration of 325 µM in the assay). ^3H3-17α-hydroxypregnenolone (2 μL of the working stock) was added to each tube. The plates were then pre-incubated for 15 minutes at 37° C. Following the pre-incubation, either 5 μL rat testicular microsomes (150-160 μg) or 5 μL of yeast microsomes expressing human CYP17 (1.7 pmol), was added. Incubation was at 37° C. for 60 minutes in the presence of oxygen. The plates were then placed in ice and chloroform (500 μL) was added, mixed well and incubated at 4° C. for 20 minutes. The plates were then centrifuged at 1000 rpm for 15 minutes at 4° C.
(§4) A portion (300 μL) of the aqueous solution was collected and mixed with a 5% aqueous suspension of activated charcoal (300 μL). The plates were then incubated at 4° C. for 30 minutes, after which the plates were centrifuged at 1000 rpm for 15 minutes at 4° C. From this, 125 μL of the aqueous solution was collected and plated into a 96 well plate. Microscint™ 40 [125 μL, Perkin-Elmer; containing a mixture of a polymer based on alkylphenolethoxylate (20-40%), diethanolamine-phosphoric acid ester ammonium salt (10-20%), sodium dioctyl sulphosuccinate (2.5-10%), triethyl phosphate (2.5-10%), 3,6-dimethyl-4-octyne-3,6-diol (≦2.5%), a polymer based on nonylphenolethoxylate (≦2.5%), diisopropyl naphthalene isomers (40-60%), 2,5-diphenyloxazole (≦2.5%), and 9,10-dimethylanthracene] was added and mixed well. After 30 minutes of incubation, the samples were analyzed with a MicroBeta® Trilux microplate liquid scintillation counter and luminometer (Perkin-Elmer).

The target of another assay is T2, rat CYP17 (Rattus norvegicus, UniProt P11715).
T2 construct: Rat testis tissue was collected and disrupted with 30 strokes of a glass homogenizer; from tissue; host or cells: rat testis (microsomal fraction)
T2 sequence (P11715 1-507): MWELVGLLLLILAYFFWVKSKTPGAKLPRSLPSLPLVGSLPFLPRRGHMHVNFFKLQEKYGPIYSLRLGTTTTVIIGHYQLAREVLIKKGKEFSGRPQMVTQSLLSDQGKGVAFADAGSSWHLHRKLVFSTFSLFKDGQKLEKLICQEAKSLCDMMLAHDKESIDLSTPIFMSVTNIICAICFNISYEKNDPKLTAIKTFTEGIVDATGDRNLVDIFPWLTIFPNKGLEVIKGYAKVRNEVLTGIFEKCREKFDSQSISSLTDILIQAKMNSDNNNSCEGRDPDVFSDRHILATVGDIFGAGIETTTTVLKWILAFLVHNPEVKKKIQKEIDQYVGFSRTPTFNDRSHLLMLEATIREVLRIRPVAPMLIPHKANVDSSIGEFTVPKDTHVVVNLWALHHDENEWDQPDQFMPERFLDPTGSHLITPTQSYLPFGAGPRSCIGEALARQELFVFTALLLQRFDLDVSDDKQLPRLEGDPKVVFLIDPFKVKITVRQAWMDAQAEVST
Nature of the assay: CYP17 inhibition assay in rat testicular microsomes. The settings on record: 3H3-17α-hydroxypregnenolone substrate, 60 minutes at 37° C. The assay is classed as biochemical. On the procedure:
as §1, §2, §3, §4

Broadly, the IC50 is the concentration needed to halve the response being measured. Lower therefore signals higher potency. Consider `CCC(c1cnc(-c2ccc(OC)cc2)s1)n1ccnc1` (centres unmarked) [Example 35, 5-(1-Imidazol-1-yl-propyl)-2-(4-methoxy-phenyl)-thiazole], for which the IC50 at human CYP17 is 201 to 10000 nM; against rat CYP17, below 50 nM.

On to `CCC(c1ccc(-c2ccc(OC)cc2)cn1)n1ccnc1` (centres unmarked) [Example 47, 2-(1-Imidazol-1-yl-propyl)-5-(4-methoxy-phenyl)-pyridine], for which the IC50 against human CYP17 was 201 to 10000 nM; against rat CYP17 it was below 50 nM.

On to `CC(c1ccc(-c2ccc(=O)n(C)c2)s1)n1ccnc1` (centres unmarked) [Example 20, 5-(5-(1-(1H-imidazol-1-yl)ethyl)thiophen-2-yl)-1-methylpyridin-2(1H)-one], for which the IC50 against human CYP17 is 201 to 10000 nM; against rat CYP17 it was below 50 nM.

In the case of `CCC(c1ccc(-c2ccccc2OC)cn1)n1ccnc1` (centres unmarked) [Example 56, 2-(1-Imidazol-1-yl-propyl)-5-(2-methoxy-phenyl)-pyridine], the IC50 on human CYP17 was 201 to 10000 nM; against rat CYP17, below 50 nM.
